Measured values taken from US20050282818A1, “Ubiquitin ligase inhibitors” (Rigel Pharmaceuticals, Inc., priority 2004, published 2005).
Read-outs that look alike come from different tables or passages of the source.

Assays:
TRAF6/Uev1A/Ubc13 = molecular target: T1, TRAF6/Uev1A/Ubc13 (Homo sapiens, UniProt Q9Y4K3); assay: TRAF6/Uev1A/Ubc13 plate-based ubiquitin ligase assay; type: biochemical
T1 sequence (Q9Y4K3 1-522): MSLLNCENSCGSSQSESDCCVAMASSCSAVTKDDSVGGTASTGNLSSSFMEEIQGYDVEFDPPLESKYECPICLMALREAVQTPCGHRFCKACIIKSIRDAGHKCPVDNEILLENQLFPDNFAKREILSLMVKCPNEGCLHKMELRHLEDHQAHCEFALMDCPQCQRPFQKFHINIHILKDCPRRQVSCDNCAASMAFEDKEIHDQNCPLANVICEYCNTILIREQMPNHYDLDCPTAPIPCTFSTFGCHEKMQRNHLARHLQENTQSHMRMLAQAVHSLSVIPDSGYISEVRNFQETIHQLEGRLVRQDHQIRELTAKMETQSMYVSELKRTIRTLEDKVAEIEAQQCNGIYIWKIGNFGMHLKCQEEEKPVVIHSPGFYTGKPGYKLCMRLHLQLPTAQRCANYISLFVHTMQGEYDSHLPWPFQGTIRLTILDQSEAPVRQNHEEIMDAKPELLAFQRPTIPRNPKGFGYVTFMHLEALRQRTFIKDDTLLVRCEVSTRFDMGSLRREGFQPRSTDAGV
How it was run: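 Ligase activity was read as luminescence from anti-Flag/HRP detection of Flag-ubiquitin bound to casein-blocked Ni-plates alongside His-ubiquitin after a 1 h room-temperature reaction. Buffer: 62.5 mM Tris pH 7.5, 6.25 mM MgCl2, 1.0 mM DTT, 2 μM ATP; E1, Uev1a/Ubc13 and TRAF6 added last to start. IC50s derived across compound concentrations.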

[1] = test system: ICAM-1 expression in A549 cells; assay: ICAM assay (IL-1 induced ICAM-1/CD54 expression in A549 cells); type: cell-based, human; details: Homo sapiens, A549, ICAM assay
Text: The expression of intercellular adhesion molecule (ICAM)-1 in endothelial cells is pivotal in supporting lymphocyte migration across the vascular endothelium. TNF/IL-1 induces the NF-kB pathway in which NF-kB acts as a transcription factor and activation of NF-kB induces ICAM expression. IkB inhibits NF-KB by binding to it and retaining NF-kB in the cytoplasm. Upon cytokine stimulation, several signaling molecule including TRAF6, IKKs, and TAK1 are activated which lead to the phosphorylation of IkB. Phosphorylated IkB is then ubiquitinated by the SCF complex and degraded by proteasome, thereby releasing NF-kB to translocate into the nucleus. In the nucleus, NF-kB binds to DNA and activates transcription of various genes that are involved in inflammation, cell survival, and apoptosis. The ICAM assay is a primary assay for HTS as well as a cell based assay for TRAF6 inhibitors.
The following materials are used 96-well plates; F12K complete medium that includes 10% FBS and 1% P/S (penicillin/streptomycin); 1×PBS; 5 ug/ml IL-1, Human CD54 (CALTAG Laboratory, Cat#MHCD5400-4); anti-mouse-IgG (Jackson Lab, Cat#115-035 146); and A549 cells.
Procedure. 10,000 A549 cells/well were seeded in 100 μl F12K complete medium in a 96-well white plate. The seeded plate was incubate at 37° C. incubator in 5% CO2 overnight. After the overnight incubation, 4 μl of diluted test compound was added and incubated for 1 hour at 37° C. After the 1 hour incubation, 4 μl of 25 ng/ml IL-1 was added to each well and the cells were stimulated at 37° C. for 4 hours.
After stimulation, the cells were stained with CD54 (1:1000 diluted with medium) and anti-mouse IgG (1:1100 diluted with medium) for 1 hour. Subsequently, the medium was removed and each well was washed with 200 μl of PBS three times. Detection of activity was performed by addition of 100 μl/well of lumino substrate.

A549 cells = assay: Cell proliferation PAD assay, A549; type: cell-based; details: Homo sapiens, 48 hours
How it was run: (§1)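 Cells were seeded at 2,000 per well and dosed 24 h later, in duplicate, with 6.3-fold dilution series from a 10 mM master stock diluted 500-fold into wells. After 48 h at 37 °C, 5% CO2, cells were formamide-fixed, DAPI-stained and imaged to count live, apoptotic and dead cells.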

H1299 cells = assay: Cell proliferation PAD assay, H1299; type: cell-based; details: Homo sapiens, 48 hours
How it was run: as §1

[2] = NCI-H1299, 6pt, read-out: H1299 6pt
[3] = NCI-H1299, 3pt, read-out: H1299 3pt

Structure (SMILES)	IC50 (TRAF6/Uev1A/Ubc13)	IC50 [1]	IC50 (A549 cells; 6pt, read-out: A549 6pt)	IC50 (H1299 cells; [2])	IC50 (A549 cells; 3pt, read-out: A549 3pt)	IC50 (H1299 cells; [3])
O=S(=O)(c1c(Cl)ccc2nonc12)N1CCC(Oc2ncccn2)CC1 [compound 234]	≥ 20 µM	≥ 20 µM			1 to 20 µM	1 to 20 µM
CN1CCN(S(=O)(=O)c2ccc(Sc3cccc4cccnc34)c3nonc23)CC1 [compound 191, 8-({7-[(4-methylpiperazin-1-yl)sulfonyl]-2,1,3-benzoxadiazol-4-yl}thio)quinoline]	≥ 20 µM				1 to 20 µM	1 to 20 µM
O=S(=O)(c1ccc(F)c2nonc12)N1CCN(c2ncccc2C(F)(F)F)CC1 [compound 165, 4-fluoro-7-({4-[3-(trifluoromethyl)pyridin-2-yl]piperazin-1-yl}sulfonyl)-2,1,3-benzoxadiazole]	≥ 20 µM		≥ 20 µM	≥ 20 µM	1 to 20 µM	≥ 20 µM
CC(=O)C1(c2ccccc2)CCN(c2ccc([N+](=O)[O-])c3nonc23)CC1 [compound 231, 1-[1-(7-nitro-2,1,3-benzoxadiazol-4-yl)-4-phenylpiperidin-4-yl]ethanone]	1 to 20 µM				≥ 20 µM	1 to 20 µM
CC1CN(S(=O)(=O)c2ccc(Sc3cccc4cccnc34)c3nonc23)CC(C)O1 (centres unmarked) [compound 213, 8-({7-[(2,6-dimethylmorpholin-4-yl)sulfonyl]-2,1,3-benzoxadiazol-4-yl}thio)quinoline]	≥ 20 µM				1 to 20 µM	≥ 20 µM
Nc1ccc(S(=O)(=O)Nc2ccnc(Cl)c2)c2nonc12 [compound 195, 7-amino-N-(2-chloropyridin-4-yl)-2,1,3-benzoxadiazole-4-sulfonamide]	≥ 20 µM				≥ 20 µM	≥ 20 µM
Nc1ccc2cnn(S(=O)(=O)c3ccc(Cl)c4nonc34)c2c1 [compound 221, 1-[(7-chloro-2,1,3-benzoxadiazol-4-yl)sulfonyl]-1H-indazol-6-amine]	≥ 20 µM				≥ 20 µM	≥ 20 µM
O=S(=O)(c1ccc(N2CCN(c3ccc(O)cc3)CC2)c2nonc12)N1CCN(c2ccc(O)cc2)CC1 [compound 173, 4-[4-({7-[4-(4-hydroxyphenyl)piperazin-1-yl]-2,1,3-benzoxadiazol-4-yl}sulfonyl)piperazin-1-yl]phenol]	≥ 20 µM		1 to 20 µM	1 to 20 µM		
O=S(=O)(c1ccc(Cl)c2nonc12)N1CCC(O)(c2ccc(Cl)cc2)CC1 [compound 168, 1-[(7-chloro-2,1,3-benzoxadiazol-4-yl)sulfonyl]-4-(4-chlorophenyl)piperidin-4-ol]	≥ 20 µM		≥ 20 µM	≥ 20 µM	1 to 20 µM	1 to 20 µM
O=C(OCc1ccccc1)N1CCN(c2ccc([N+](=O)[O-])c3nonc23)CC1 [compound 278, benzyl 4-(7-nitro-2,1,3-benzoxadiazol-4-yl)piperazine-1-carboxylate]	≥ 20 µM				1 to 20 µM	1 to 20 µM
COC(=O)c1ccc(Nc2ccc3nonc3c2S(=O)(=O)Nc2ccc(C(=O)OC)cc2)cc1 [compound 10, methyl 4-{[(5-{[4-(methoxycarbonyl)phenyl]amino}-2,1,3-benzoxadiazol-4-yl)sulfonyl]amino}benzoate]	≥ 20 µM		≥ 20 µM	≥ 20 µM		
O=[N+]([O-])c1ccc(N2CCN(CCN3CCOCC3)CC2)c2nonc12 [compound 85, 4-[4-(2-morpholin-4-ylethyl)piperazin-1-yl]-7-nitro-2,1,3-benzoxadiazole]	≥ 20 µM				≥ 20 µM	≥ 20 µM
Cc1cc(N2CCN(c3ccc([N+](=O)[O-])c4nonc34)CC2)c2ccccc2n1 [compound 152, 2-methyl-4-[4-(7-nitro-2,1,3-benzoxadiazol-4-yl)piperazin-1-yl]quinoline]	≥ 20 µM				1 to 20 µM	1 to 20 µM
CC1CN(c2ccc(S(=O)(=O)N3CC(C)OC(C)C3)c3nonc23)CC(C)O1 (centres unmarked) [compound 211, 4-(2,6-dimethylmorpholin-4-yl)-7-[(2,6-dimethylmorpholin-4-yl)sulfonyl]-2,1,3-benzoxadiazole]	≥ 20 µM				≥ 20 µM	≥ 20 µM

Next, values leading:

IC50 (TRAF6/Uev1A/Ubc13)	IC50 [1]	IC50 (A549 cells; 6pt, read-out: A549 6pt)	IC50 (H1299 cells; [2])	IC50 (A549 cells; 3pt, read-out: A549 3pt)	IC50 (H1299 cells; [3])	Structure (SMILES)
1 to 20 µM	≥ 20 µM					O=S(=O)(Nc1cccc(F)c1F)c1ccc(Cl)c2nonc12 [compound 271, 7-chloro-N-(2,3-difluorophenyl)-2,1,3-benzoxadiazole-4-sulfonamide]
1 to 20 µM	≥ 20 µM	1 to 20 µM	< 1 µM			O=S(=O)(c1c(Cl)ccc2nonc12)N1CCC(Oc2ccccc2C(F)(F)F)CC1 [compound 229, 5-chloro-4-({4-[2-(trifluoromethyl)phenoxy]piperidin-1-yl}sulfonyl)-2,1,3-benzoxadiazole]
≥ 20 µM	≥ 20 µM	1 to 20 µM	1 to 20 µM			O=S(=O)(c1c(Cl)ccc2nonc12)N1CCN(c2ccc(Cl)c(C(F)(F)F)c2)CC1 [compound 182, 5-chloro-4-({4-[4-chloro-3-(trifluoromethyl)phenyl]piperazin-1-yl}sulfonyl)-2,1,3-benzoxadiazole]
1 to 20 µM	≥ 20 µM	1 to 20 µM	1 to 20 µM			O=S(=O)(c1ccc(Sc2cccc3cccnc23)c2nonc12)N1CCN(c2ccccc2)CC1 [compound 217, 8-({7-[(4-phenylpiperazin-1-yl)sulfonyl]-2,1,3-benzoxadiazol-4-yl}thio)quinoline]
1 to 20 µM	≥ 20 µM					O=S(=O)(Nc1cccc(F)c1F)c1ccc(F)c2nonc12 [compound 274, N-(2,3-difluorophenyl)-7-fluoro-2,1,3-benzoxadiazole-4-sulfonamide]
1 to 20 µM				≥ 20 µM	≥ 20 µM	O=S(=O)(Oc1ccc(N2CCN(S(=O)(=O)c3cccc4nonc34)CC2)cc1)c1cccc2nonc12 [compound 139, 4-[4-(2,1,3-benzoxadiazol-4-ylsulfonyl)piperazin-1-yl]phenyl 2,1,3-benzoxadiazole-4-sulfonate]
1 to 20 µM		1 to 20 µM	≥ 20 µM			O=S(=O)(c1ccc(N2CCN(c3ncccc3C(F)(F)F)CC2)c2nonc12)N1CCN(c2ncccc2C(F)(F)F)CC1 [compound 166, 4-{4-[3-(trifluoromethyl)pyridin-2-yl]piperazin-1-yl}-7-({4-[3-(trifluoromethyl)pyridin-2-yl]piperazin-1-yl}sulfonyl)-2,1,3-benzoxadiazole]
1 to 20 µM		≥ 20 µM	1 to 20 µM			O=S(=O)(c1ccc(Sc2ccncc2)c2nonc12)N1CCC(O)(c2ccc(Cl)cc2)CC1 [compound 246, 4-(4-chlorophenyl)-1-{[7-(pyridin-4-ylthio)-2,1,3-benzoxadiazol-4-yl]sulfonyl}piperidin-4-ol]
1 to 20 µM		≥ 20 µM	≥ 20 µM	≥ 20 µM	≥ 20 µM	N#Cc1cccnc1N1CCN(S(=O)(=O)c2ccc(Sc3cccc4cccnc34)c3nonc23)CC1 [compound 176, 2-(4-{[7-(quinolin-8-ylthio)-2,1,3-benzoxadiazol-4-yl]sulfonyl}piperazin-1-yl)nicotinonitrile]
